Laboratory results as given in ChEMBL document CHEMBL1129131, “Identification and structure-activity relationship studies of osthol, a cytotoxic principle from Cnidium monnieri” (Bioorg Med Chem Lett, 1996).
pIC50: −log10 of the molar value. In brackets after ≈: the same amount, converted by molar mass.

These molecules were tested on KB (assay: Compound was tested for its cytotoxicity against KB cells). Details: Homo sapiens.
Type: functional, cell-based

| Structure (SMILES) | IC50 [mg/L] |
| --- | --- |
| COc1ccc2ccc(=O)oc2c1CC=C(C)C [OSTHOLE] | 12 (≈ 49.1 µM) |

What follows are molecules tested on P388 (assay: Compound was tested for its cytotoxicity against P-388 cells). Details: Mus musculus.
Type: functional, cell-based

| Structure (SMILES) | IC50 [mg/L] |
| --- | --- |
| COc1ccc2ccc(=O)oc2c1CC=C(C)C [OSTHOLE] | 3.1 (≈ 12.7 µM) |

What follows are molecules tested on MM46 (assay: Compound was tested for its cytotoxicity against MM46 cells). Details: Mus musculus.
Type: functional, cell-based

| Structure (SMILES) | IC50 [mg/L] |
| --- | --- |
| COc1ccc2ccc(=O)oc2c1CC=C(C)C [OSTHOLE] | 8.6 (≈ 35.2 µM) |

The molecules below were run on V79 (assay: Cytotoxicity against V-79 cells). Details: Cricetulus griseus.
Type: functional, cell-based

| Structure (SMILES) | pIC50 |
| --- | --- |
| COc1ccc2c(c1CCC(C)C)OC(=O)CC2 | < 4.00 |
| COc1ccc2ccc(=O)oc2c1CCC(C)(C)O | < 4.00 |
| CCCOc1ccc2ccc(=O)oc2c1CCC(C)C | 5.25 |
| CC(C)CCc1c(O)ccc2c1OC(=O)CC2 | < 4.00 |
| CCCCOc1ccc2ccc(=O)oc2c1CCC(C)C | 4.80 |
| COc1ccc2ccc(=O)oc2c1CC(O)C(C)(C)O (configuration not stated) | < 4.00 |
| CC(C)CCc1c(O)ccc2ccc(=O)oc12 | 4.40 |
| COc1ccc2ccc(=O)oc2c1CC(Br)C(C)(C)Br (configuration not stated) | 4.22 |
| CCCC(=O)c1ccc2ccc(=O)oc2c1CCC(C)C | 4.24 |
| CC(C)CCc1cccc2ccc(=O)oc12 | 4.22 |
| CC(=O)c1ccc2ccc(=O)oc2c1CCC(C)C | 4.22 |
| COc1ccc2ccc(=O)oc2c1CC1OC1(C)C (configuration not stated) | < 4.00 |
| CCCCCCCOc1ccc2ccc(=O)oc2c1CCC(C)C | 4.77 |
| COc1ccc2ccc(=O)oc2c1CCC(C)C | 4.24 |
| CCOc1ccc2ccc(=O)oc2c1CCC(C)C | 5.24 |
| O=c1ccc2ccccc2o1 [COUMARIN] | < 4.00 |
| COc1ccc2ccc(=O)oc2c1 [HERNIARIN] | < 4.00 |
| COc1ccc2ccc(=O)oc2c1CC=C(C)C [OSTHOLE] | 4.24 |
| O=c1ccc2ccc(O)cc2o1 [UMBELLIFERONE] | 4.24 |
